Results reported in PMC10511244 (Nature, 2022).

Tested on: AS4.3, AS8.2, AS8.4, and AU2.1 TCRs
Assay: CD69 upregulation with peptide-pulsed K562 cells expressing HLA-B*27:05
Assay type: cell-based, human
Details: SKW-3 T cells expressing AS4.3, AS8.2, AS8.4, and AU2.1 TCRs; n = 3 biological replicates

| Sequence | T cell response (CD69 upregulation) when peptide presented by HLA-B*27:05-expressing K562 cells |
| --- | --- |
| GQVMVVAPR [RNASEH2B^self] | robust T cell responses |
| LRQMLQAPH [MPP4^self] | robust T cell responses |
